Assay: Solubility of the hole-transfer agent in triglyceride oleate
Format: physicochemical
Details: 25° C., g per 100 g of triglyceride oleate
Source text: Here, the term “solubility in triglyceride oleate (% by weight)” means the amount of a solvent (hole-transfer agent) (g) with reference to 100 g of triglyceride oleate.

SMILES | HTM Solubility [w %]
CCc1cccc(C)c1N(c1ccccc1)c1ccc(/C=C/c2ccc(/C=C/c3ccc(N(c4ccccc4)c4c(C)cccc4CC)cc3)cc2)cc1 [HTM-8] | 2.1
CC(C)c1ccc(N(c2ccccc2)c2cccc(N(c3ccccc3)c3ccc(C(C)C)cc3)c2)cc1 [HTM-1] | 11.1
CCCCc1ccc(N(c2ccc(C)cc2)c2c(N(c3ccc(C)cc3)c3ccc(CCCC)cc3)c3ccccc3c3ccccc23)cc1 [HTM-10] | 2.8
Cc1ccccc1N(c1ccc(-c2ccc(N(c3ccccc3C)c3ccccc3/C=C/c3ccccc3)cc2)cc1)c1ccccc1/C=C/c1ccccc1 [HTM-9] | 37.0
